Read-outs that look alike come from different tables or passages of the source. Marks after values point to notes of the source that are not given here.
Assays:
Hep 3B cells = test: MTT cell viability assay, Hep 3B cells (serum-free DMEM); details: for viability at 1.25 µM / viability at 5 µM / viability at 10 µM / viability at 25 µM / IC50 / viability at 0.1 µM / viability at 0.5 µM / viability at 1 µM / viability at 2 µM: Homo sapiens, Hep3B
Description: (§1) Human hepatoma cell lines Hep G2 and Hep 3 were chosen as the in vitro models of hepatocytes and hepatoma, respectively.

Hep G2 cells = test: MTT cell viability assay, Hep G2 cells (serum-free DMEM); details: Homo sapiens
Description: as §1

[1] = as above; details: human, Hep G2 cells, Cell viability
Description: as §1

[2] = 48 h, read-out: IC50 (cell viability), 48 hr
[3] = 72 h, read-out: IC50 (cell viability), 72 hr
[4] = no lovastatin 48 hr, then CAO 1.25 μM 48 hr
[5] = no lovastatin 48 hr, then CAO 5 μM 48 hr
[6] = HepG2, 48 h, read-out: IC50 (cell viability), 48 hr
[7] = HepG2, 72 h, read-out: IC50 (cell viability), 72 hr

Question: For `CCCCCCCCOC(=O)/C=C/c1ccc(O)c(O)c1` [CAO, caffeic acid 1-octyl ester], which “Ratio, inhibition (%) Hep 3B/inhibition (%) Hep G2” value (“Ratio, inhibition … (%) Hep G2” below) (Hep 3B cells; CAO 1.25 μM alone, 96 hr) is on record?
Answer: Its value is 1.3*.

Question: What about the “Ratio, inhibition … (%) Hep G2” value (Hep 3B cells; CAO 5 μM alone, 96 hr) of the same molecule?
Answer: The value was 0.9.

Question: What about the “Ratio, inhibition … (%) Hep G2” value (Hep 3B cells; CAO 5 μM, 48 hr) of the same molecule?
Answer: Its value is 0.9**.

Question: And the “Ratio, inhibition … (%) Hep G2” value (Hep 3B cells; CAO 5 μM, 72 hr)?
Answer: The value was 1.0.

Question: And the “Ratio, inhibition … (%) Hep G2” value (Hep 3B cells; CAO 10 μM, 48 hr)?
Answer: The value was 0.8.

Question: And the “Ratio, inhibition … (%) Hep G2” value (Hep 3B cells; CAO 10 μM, 72 hr)?
Answer: Its value is 1.0.

Question: And the “Ratio, inhibition … (%) Hep G2” value (Hep 3B cells; CAO 25 μM, 48 hr)?
Answer: Its value is 1.0*.

Question: And the “Ratio, inhibition … (%) Hep G2” value (Hep 3B cells; CAO 25 μM, 72 hr)?
Answer: The value was 1.0.

Question: And the viability at 1.25 µM (Hep 3B cells; 48 h, read-out: Cell viability, CAO 1.25 μM, 48 hr)?
Answer: The viability at 1.25 µM was 97.8 ± 4.1%.

Question: What about the viability at 5 µM (Hep 3B cells; 48 h, read-out: Cell viability, CAO 5 μM, 48 hr) of the same molecule?
Answer: Its viability at 5 µM is 52 ± 1.8%.

Question: What about the viability at 10 µM (Hep 3B cells; 48 h, read-out: Cell viability, CAO 10 μM, 48 hr) of the same molecule?
Answer: Its viability at 10 µM is 21.7 ± 3.9%.

Question: What about the viability at 25 µM (Hep 3B cells; 48 h, read-out: Cell viability, CAO 25 μM, 48 hr) of the same molecule?
Answer: The viability at 25 µM was 3.9 ± 1.3%.

Question: And the IC50 (Hep 3B cells; [2])?
Answer: The IC50 was 5.3 µM.

Question: And the viability at 1.25 µM (Hep 3B cells; 72 h, read-out: Cell viability, CAO 1.25 μM, 72 hr)?
Answer: The viability at 1.25 µM was 89.8 ± 0.6%.

Question: What about the viability at 5 µM (Hep 3B cells; 72 h, read-out: Cell viability, CAO 5 μM, 72 hr) of the same molecule?
Answer: The viability at 5 µM was 16.3 ± 2.6%.

Question: What about the viability at 10 µM (Hep 3B cells; 72 h, read-out: Cell viability, CAO 10 μM, 72 hr) of the same molecule?
Answer: The viability at 10 µM was 2.4 ± 1.6%.

Question: What about the viability at 25 µM (Hep 3B cells; 72 h, read-out: Cell viability, CAO 25 μM, 72 hr) of the same molecule?
Answer: The viability at 25 µM was 0%.

Question: What about the IC50 (Hep 3B cells; [3]) of the same molecule?
Answer: Its IC50 is 2.9 µM.

Question: What about the viability at 1.25 µM (Hep 3B cells; 96 h, read-out: Cell viability, CAO 1.25 μM alone, 96 hr) of the same molecule?
Answer: Its viability at 1.25 µM is 66.9 ± 2.9%.

Question: What about the viability at 5 µM (Hep 3B cells; 96 h, read-out: Cell viability, CAO 5 μM alone, 96 hr) of the same molecule?
Answer: The viability at 5 µM was 20.1 ± 5.7%.

Question: And the Cell viability (Hep 3B cells; [4])?
Answer: Its Cell viability is 83.0 ± 4.4^b % of control.

Question: What about the “Ratio, inhibition … (%) Hep G2” value (Hep 3B cells; [4]) of the same molecule?
Answer: The value was 17.0***.

Question: What about the Cell viability (Hep 3B cells; [5]) of the same molecule?
Answer: Its Cell viability is 53.2 ± 4.5^d % of control.

Question: What about the “Ratio, inhibition … (%) Hep G2” value (Hep 3B cells; [5]) of the same molecule?
Answer: Its value is 0.8*.

Question: And the IC50 (Hep G2 cells; [6])?
Answer: The IC50 was 4 µM.

Question: And the IC50 (Hep G2 cells; [7])?
Answer: Its IC50 is 2.7 µM.

Question: What about the viability at 96 h, 1.25 μM ([1]; CAO 1.25 μM alone, 96 hr) of the same molecule?
Answer: Its viability at 96 h, 1.25 μM is 74 ± 2.9%.

Question: What about the viability at 48 h, 1.25 μM ([1]; CAO 1.25 μM, 48 hr) of the same molecule?
Answer: Its viability at 48 h, 1.25 μM is 104 ± 4.6%.

Question: And the viability at 72 h, 1.25 μM ([1]; CAO 1.25 μM, 72 hr)?
Answer: The viability at 72 h, 1.25 μM was 102.7 ± 0.4%.

Question: What about the viability at 96 h, 5 μM ([1]; CAO 5 μM alone, 96 hr) of the same molecule?
Answer: The viability at 96 h, 5 μM was 16.2 ± 1.2%.

Question: And the viability at 48 h, 5 μM ([1]; CAO 5 μM, 48 hr)?
Answer: Its viability at 48 h, 5 μM is 44.2 ± 6.6%.

Question: And the viability at 72 h, 5 μM ([1]; CAO 5 μM, 72 hr)?
Answer: Its viability at 72 h, 5 μM is 18.1 ± 2.1%.

Question: And the viability at 48 h, 10 μM ([1]; CAO 10 μM, 48 hr)?
Answer: Its viability at 48 h, 10 μM is 5.8 ± 3.9%.

Question: What about the viability at 72 h, 10 μM ([1]; CAO 10 μM, 72 hr) of the same molecule?
Answer: The viability at 72 h, 10 μM was 0%.

Question: And the viability at 48 h, 25 μM ([1]; CAO 25 μM, 48 hr)?
Answer: The viability at 48 h, 25 μM was 0%.

Question: And the viability at 72 h, 25 μM ([1]; CAO 25 μM, 72 hr)?
Answer: The viability at 72 h, 25 μM was 0%.

Question: And the viability at 48 h, 1.25 μM [1, 4]?
Answer: The viability at 48 h, 1.25 μM was 99 ± 4.1%.

Question: What about the viability at 48 h, 5 μM [1, 5] of the same molecule?
Answer: The viability at 48 h, 5 μM was 42.8 ± 3%.

Question: For `COc1cccc2c1C(=O)c1c(O)c3c(c(O)c1C2=O)C[C@@](O)(C(=O)CO)C[C@@H]3O[C@H]1C[C@H](N)[C@H](O)[C@H](C)O1` [DOX, doxorubicin], which “Ratio, inhibition … (%) Hep G2” value (Hep 3B cells; DOX 0.5 μM, 48 hr) is on record?
Answer: Its value is 0.6***.

Question: And the “Ratio, inhibition … (%) Hep G2” value (Hep 3B cells; DOX 0.5 μM, 72 hr)?
Answer: The value was 0.7*.

Question: And the “Ratio, inhibition … (%) Hep G2” value (Hep 3B cells; DOX 1 μM, 48 hr)?
Answer: Its value is 0.6***.

Question: What about the “Ratio, inhibition … (%) Hep G2” value (Hep 3B cells; DOX 1 μM, 72 hr) of the same molecule?
Answer: Its value is 0.6**.

Question: What about the “Ratio, inhibition … (%) Hep G2” value (Hep 3B cells; DOX 2 μM, 48 hr) of the same molecule?
Answer: The value was 0.7***.

Question: What about the “Ratio, inhibition … (%) Hep G2” value (Hep 3B cells; DOX 2 μM, 72 hr) of the same molecule?
Answer: Its value is 0.9**.

Question: And the viability at 0.1 µM (Hep 3B cells; 48 h, read-out: Cell viability, DOX 0.1 μM, 48 hr)?
Answer: The viability at 0.1 µM was 99.9 ± 7.8%.

Question: And the viability at 0.5 µM (Hep 3B cells; 48 h, read-out: Cell viability, DOX 0.5 μM, 48 hr)?
Answer: Its viability at 0.5 µM is 66.7 ± 1.6%.

Question: What about the viability at 1 µM (Hep 3B cells; 48 h, read-out: Cell viability, DOX 1 μM, 48 hr) of the same molecule?
Answer: The viability at 1 µM was 59.3 ± 4.1%.

Question: What about the viability at 2 µM (Hep 3B cells; 48 h, read-out: Cell viability, DOX 2 μM, 48 hr) of the same molecule?
Answer: The viability at 2 µM was 40.1 ± 3%.

Question: What about the IC50 (Hep 3B cells; [2]) of the same molecule?
Answer: The IC50 was 1.5 µM.

Question: And the viability at 0.1 µM (Hep 3B cells; 72 h, read-out: Cell viability, DOX 0.1 μM, 72 hr)?
Answer: Its viability at 0.1 µM is 100 ± 5.8%.

Question: And the viability at 0.5 µM (Hep 3B cells; 72 h, read-out: Cell viability, DOX 0.5 μM, 72 hr)?
Answer: Its viability at 0.5 µM is 62.1 ± 6.9%.

Question: What about the viability at 1 µM (Hep 3B cells; 72 h, read-out: Cell viability, DOX 1 μM, 72 hr) of the same molecule?
Answer: The viability at 1 µM was 48.9 ± 8.4%.

Question: And the viability at 2 µM (Hep 3B cells; 72 h, read-out: Cell viability, DOX 2 μM, 72 hr)?
Answer: The viability at 2 µM was 9.9 ± 2.7%.

Question: And the IC50 (Hep 3B cells; [3])?
Answer: Its IC50 is 1 µM.

Question: What about the IC50 (Hep G2 cells; [6]) of the same molecule?
Answer: The IC50 was 0.4 µM.

Question: And the IC50 (Hep G2 cells; [7])?
Answer: Its IC50 is 0.5 µM.

Question: And the viability at 48 hr, 0.1 μM ([1]; DOX 0.1 μM, 48 hr)?
Answer: The viability at 48 hr, 0.1 μM was 100 ± 5.3%.

Question: What about the viability at 72 hr, 0.1 μM ([1]; DOX 0.1 μM, 72 hr) of the same molecule?
Answer: The viability at 72 hr, 0.1 μM was 99.9 ± 7.5%.

Question: What about the viability at 48 hr, 0.5 μM ([1]; DOX 0.5 μM, 48 hr) of the same molecule?
Answer: Its viability at 48 hr, 0.5 μM is 42.8 ± 3.7%.

Question: What about the viability at 72 hr, 0.5 μM ([1]; DOX 0.5 μM, 72 hr) of the same molecule?
Answer: Its viability at 72 hr, 0.5 μM is 46.7 ± 4%.

Question: And the viability at 48 hr, 1 μM ([1]; DOX 1 μM, 48 hr)?
Answer: Its viability at 48 hr, 1 μM is 29.1 ± 1.7%.

Question: And the viability at 72 hr, 1 μM ([1]; DOX 1 μM, 72 hr)?
Answer: Its viability at 72 hr, 1 μM is 20 ± 1.1%.

Question: What about the viability at 48 hr, 2 μM ([1]; DOX 2 μM, 48 hr) of the same molecule?
Answer: The viability at 48 hr, 2 μM was 16.7 ± 2.4%.

Question: What about the viability at 72 hr, 2 μM ([1]; DOX 2 μM, 72 hr) of the same molecule?
Answer: Its viability at 72 hr, 2 μM is 1.9 ± 0.8%.
